Test results from patent publication US6150385A, “1,3,4-thiadiazoles useful for the treatment of CMV infections” (Pharmacia & Upjohn Company, priority 1999, dated 2000).

target: T1, HCMV polymerase (Human cytomegalovirus, UniProt P08546); assay: HCMV polymerase assay (scintillation proximity assay); format: biochemical; details: percentage of inhibition at 25 μM concentration in CMV polymerase assay
T1 construct: made in house; host or cells: SF-9 insect cells infected with recombinant baculovirus
T1 sequence (P08546 whole entry): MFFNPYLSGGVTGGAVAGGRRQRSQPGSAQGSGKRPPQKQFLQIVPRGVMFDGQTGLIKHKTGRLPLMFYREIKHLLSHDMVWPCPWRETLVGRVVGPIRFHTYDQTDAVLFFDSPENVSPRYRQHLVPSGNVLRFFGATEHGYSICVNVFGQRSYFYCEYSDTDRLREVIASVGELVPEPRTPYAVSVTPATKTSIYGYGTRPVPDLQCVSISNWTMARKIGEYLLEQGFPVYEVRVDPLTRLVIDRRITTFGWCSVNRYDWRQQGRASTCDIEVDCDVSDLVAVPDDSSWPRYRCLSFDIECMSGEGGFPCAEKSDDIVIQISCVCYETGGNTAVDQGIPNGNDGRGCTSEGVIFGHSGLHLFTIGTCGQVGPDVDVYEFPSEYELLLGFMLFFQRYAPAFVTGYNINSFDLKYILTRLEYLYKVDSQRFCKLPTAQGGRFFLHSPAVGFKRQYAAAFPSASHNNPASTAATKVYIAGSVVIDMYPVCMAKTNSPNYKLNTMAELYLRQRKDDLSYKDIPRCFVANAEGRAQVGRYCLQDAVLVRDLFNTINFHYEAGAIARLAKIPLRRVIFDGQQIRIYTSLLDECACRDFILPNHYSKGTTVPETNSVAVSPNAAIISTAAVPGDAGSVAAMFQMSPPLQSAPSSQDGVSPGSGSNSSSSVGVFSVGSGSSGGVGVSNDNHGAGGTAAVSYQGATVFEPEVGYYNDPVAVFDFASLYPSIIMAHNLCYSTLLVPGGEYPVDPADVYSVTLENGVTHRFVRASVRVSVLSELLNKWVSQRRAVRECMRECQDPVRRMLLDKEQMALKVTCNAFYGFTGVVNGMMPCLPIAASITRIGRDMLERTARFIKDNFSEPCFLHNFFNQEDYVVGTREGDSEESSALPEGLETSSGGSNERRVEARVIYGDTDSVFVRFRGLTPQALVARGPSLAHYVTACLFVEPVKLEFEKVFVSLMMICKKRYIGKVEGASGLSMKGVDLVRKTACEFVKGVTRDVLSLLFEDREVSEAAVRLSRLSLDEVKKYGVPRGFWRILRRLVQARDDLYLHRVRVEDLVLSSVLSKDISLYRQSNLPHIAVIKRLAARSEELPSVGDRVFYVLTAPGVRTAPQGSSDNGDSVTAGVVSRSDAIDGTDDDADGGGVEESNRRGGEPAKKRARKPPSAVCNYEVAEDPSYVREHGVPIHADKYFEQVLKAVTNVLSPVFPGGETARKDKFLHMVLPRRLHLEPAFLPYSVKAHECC
Outline: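 Values are percent inhibition at 25 μM, measured by scintillation proximity after capture of biotinylated poly(dA)-oligo(dT) (6 nM) extended with 90 nM 3H-dTTP. Recombinant SF-9-derived enzyme reacted 30 min at 25 or 37 °C in HEPES pH 7.5/KCl/MgCl2/BSA buffer, ±2 mM CHAPS, before EDTA termination.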

| SMILES | inhibition at 25 µM | % Inhib |
| --- | --- | --- |
| Cc1ccc(C(=O)Nc2nnc(NCCc3ccc(S(N)(=O)=O)cc3)s2)cc1 [compound 230, N-(5-{[4-(aminosulfonyl)phenethyl]amino}-1,3,4-thiadiazol-2-yl)-4-methylbenzamide] | 42.3% | – |
| CCOc1ccc2ccccc2c1C(=O)Nc1nnc(NCCCCc2ccccc2)s1 [compound 231, 2-ethoxy-N-{5-[(4-phenylbutyl)amino]-1,3,4-thiadiazol-2-yl}-1-naphthamide] | 42.3% | – |
| CC(C)c1cc(C(C)C)c(C(=O)Nc2nnc(NCCN3CCCCC3)s2)c(C(C)C)c1 [compound 232, 2,4,6-triisopropyl-N-{5-[(2-piperidinoethyl)amino]-1,3,4-thiadiazol-2-yl}benzamide] | 42.2% | – |
| CCOc1ccc2ccccc2c1C(=O)Nc1nnc(NCC(C)(C)C)s1 [compound 233, 2-ethoxy-N-[5-(neopentylamino)-1,3,4-thiadiazol-2-yl]-1-naphthamide] | 42.1% | – |
| O=C(Nc1nnc(NCCc2cccs2)s1)c1cc2ccccc2s1 [compound 234, N-(5-{[2-(2-thienyl)ethyl]amino}-1,3,4-thiadiazol-2-yl)-1-benzothiophene-2-carboxamide] | 42% | – |
| O=C(Nc1nnc(NCCNc2ccccc2)s1)c1cc2ccccc2s1 [compound 236, N-{5-[(2-anilinoethyl)amino]-1,3,4-thiadiazol-2-yl}-1-benzothiophene-2-carboxamide] | 41.6% | – |
| O=C(Nc1nnc(NCc2cccs2)s1)c1cc2ccccc2s1 [compound 237, N-{5-[(2-thienylmethyl)amino]-1,3,4-thiadiazol-2-yl}-1-benzothiophene-2-carboxamide] | 41.5% | – |
| CCCCCCCC/C=C/CCCCCCCC(=O)Nc1nnc(NCc2ccco2)s1 [compound 238, (E)-N-{5-[(2-furylmethyl)amino]-1,3,4-thiadiazol-2-yl}-9-octadecenamide] | 41.5% | – |
| CCCCCCCCCCCNc1nnc(NC(=O)c2ccc(C(F)(F)F)cc2)s1 [compound 239, 4-(trifluoromethyl)-N-[5-(undecylamino)-1,3,4-thiadiazol-2-yl]benzamide] | 41.4% | – |
| O=C(/C=C/c1ccccc1Cl)Nc1nnc(NCCC(c2ccccc2)c2ccccc2)s1 [compound 240, (E)-3-(2-chlorophenyl)-N-{5-[(3,3-diphenylpropyl)amino]-1,3,4-thiadiazol-2-yl}-2-propenamide] | 41.3% | – |
| O=C(Nc1nnc(NCc2ccccn2)s1)c1c(Cl)cccc1Cl [compound 241, 2,6-dichloro-N-{5-[(2-pyridinylmethyl)amino]-1,3,4-thiadiazol-2-yl}benzamide] | 41.3% | – |
| CCOc1ccc2ccccc2c1C(=O)Nc1nnc(NCCCn2ccnc2)s1 [compound 242, 2-ethoxy-N-(5-{[3-(1H-imidazol-1-yl)propyl]amino}-1,3,4-thiadiazol-2-yl)-1-naphthamide] | 41.3% | – |
| O=C(Nc1nnc(NCCC(c2ccccc2)c2ccccc2)s1)c1ccc(F)cc1F [compound 243, N-{5-[(3,3-diphenylpropyl)amino]-1,3,4-thiadiazol-2-yl}-2,4-difluorobenzamide] | 41.1% | – |
| COc1ccc(CNc2nnc(NC(=O)c3ccc(C#N)cc3)s2)cc1OC [compound 244, 4-cyano-N-{5-[(3,4-dimethoxybenzyl)amino]-1,3,4-thiadiazol-2-yl}benzamide] | 41% | – |
| O=C(Nc1nnc(NCCCCc2ccccc2)s1)c1ccc(S(=O)(=O)F)cc1 [compound 245, 4-[({5-[(4-phenylbutyl)amino]-1,3,4-thiadiazol-2-yl}amino)carbonyl]benzenesulfonyl fluoride] | – | 41.0% |
| CCCCCCCC/C=C/CCCCCCCC(=O)Nc1nnc(NCC2CCCO2)s1 (stereo not shown) [compound 246, (E)-N-{5-[(tetrahydro-2-furanylmethyl)amino]-1,3,4-thiadiazol-2-yl}-9-octadecenamide] | 40.9% | – |
| O=C(Nc1nnc(NCc2ccco2)s1)c1ccc(Cl)c(Cl)c1 [compound 247, 3,4-dichloro-N-{5-[(2-furylmethyl)amino]-1,3,4-thiadiazol-2-yl}benzamide] | 40.9% | – |
| CC(C)c1cc(C(C)C)c(C(=O)Nc2nnc(NCCNc3ccccc3)s2)c(C(C)C)c1 [compound 248, N-{5-[(2-anilinoethyl)amino]-1,3,4-thiadiazol-2-yl}-2,4,6-triisopropylbenzamide] | 40.8% | – |
| CCCCCCCC/C=C/CCCCCCCC(=O)Nc1nnc(NCCC#N)s1 [compound 249, (E)-N-{5-[(2-cyanoethyl)amino]-1,3,4-thiadiazol-2-yl}-9-octadecenamide] | 40.6% | – |
| CC(C)c1cc(C(C)C)c(C(=O)Nc2nnc(NC3CCCCCC3)s2)c(C(C)C)c1 [compound 250, N-[5-(cycloheptylamino)-1,3,4-thiadiazol-2-yl]-2,4,6-triisopropylbenzamide] | 40.5% | – |

| SMILES | inhibition at 25 µM | % Inhib |
| --- | --- | --- |
| O=C(/C=C/c1ccccc1Cl)Nc1nnc(NCc2ccco2)s1 [compound 251, (E)-3-(2-chlorophenyl)-N-{5-[(2-furylmethyl)amino]-1,3,4-thiadiazol-2-yl}-2-propenamide] | 40.3% | – |
| O=C(Nc1nnc(NCCc2c[nH]c3ccccc23)s1)c1ccc(I)cc1 [compound 252, N-(5-{[2-(1H-indol-3-yl)ethyl]amino}-1,3,4-thiadiazol-2-yl)-4-iodobenzamide] | 40.2% | – |
| CCCCCCCC/C=C/CCCCCCCC(=O)Nc1nnc(NC2CCN(Cc3ccccc3)CC2)s1 [compound 253, (E)-N-{5-[(1-benzyl-4-piperidinyl)amino]-1,3,4-thiadiazol-2-yl}-9-octadecenamide] | 40.1% | – |
| O=C(CCCCCl)Nc1nnc(NCCSc2ccccc2)s1 [compound 254, 5-chloro-N-(5-{[2-(phenylsulfanyl)ethyl]amino]-1,3,4-thiadiazol-2-yl)pentanamide] | 40% | – |
| O=C(Nc1nnc(NCCc2c[nH]c3ccccc23)s1)c1c(Cl)cccc1Cl [compound 255, 2,6-dichloro-N-(5-{[2-(1H-indol-3-yl)ethyl]amino}-1,3,4-thiadiazol-2-yl)benzamide] | 39.9% | – |
| O=C(Nc1nnc(NC2CCCCCC2)s1)c1cc2ccccc2s1 [compound 256, N-[5-(cycloheptylamino)-1,3,4-thiadiazol-2-yl]-1-benzothiophene-2-carboxamide] | 39.8% | – |
| CCCCCCCCCCCNc1nnc(NC(=O)c2cc3ccccc3s2)s1 [compound 257, N-[5-(undecylamino)-1,3,4-thiadiazol-2-yl]-1-benzothiophene-2-carboxamide] | 39.8% | – |
| CC(=O)NCCNc1nnc(NC(=O)c2ccc3c(c2)C(=O)OC3=O)s1 [compound 258, N-(5-{[2-(acetylamino)ethyl]amino}-1,3,4-thiadiazol-2-yl)-1,3-dioxo-1,3-dihydro-2-benzofuran-5-carboxamide] | 39.7% | – |
| NS(=O)(=O)c1ccc(CCNc2nnc(NC(=O)c3c(Cl)cccc3Cl)s2)cc1 [compound 259, N-(5-{[4-(aminosulfonyl)phenethyl]amino}-1,3,4-thiadiazol-2-yl)-2,6-dichlorobenzamide] | 39.6% | – |
| CC(C)c1cc(C(C)C)c(C(=O)Nc2nnc(NCCCCc3ccccc3)s2)c(C(C)C)c1 [compound 260, 2,4,6-triisopropyl-N-{5-[(4-phenylbutyl)amino]-1,3,4-thiadiazol-2-yl}benzamide] | 39.6% | – |
| CCOc1ccc2ccccc2c1C(=O)Nc1nnc(NC[C@@H]2CCC3CC2C3(C)C)s1 (stereo partly drawn) [compound 261, N-[5-({[(2R)-6,6-dimethylbicyclo[3.1.1]hept-2-yl]methyl}amino)-1,3,4-thiadiazol-2-yl]-2-ethoxy-1-naphthamide] | 39.5% | – |
| O=C(/C=C/c1ccccc1)Nc1nnc(NCCc2ccccc2)s1 [compound 262, (E)-N-[5-(phenethylamino)-1,3,4-thiadiazol-2-yl]-3-phenyl-2-propenamide] | 39.5% | – |
| O=C(Nc1nnc(NCc2ccncc2)s1)c1ccc(Cl)c(Cl)c1 [compound 263, 3,4-chloro-N-{5-[(4-pyridinylmethyl)amino]-1,3,4-thiadiazol-2-yl}benzamide] | 39.4% | – |
| O=C(Nc1nnc(NCCNc2ccccc2)s1)c1ccc([N+](=O)[O-])o1 [compound 264, N-{5-[(2-anilinoethyl)amino]-1,3,4-thiadiazol-2-yl}-5-nitro-2-furamide] | 39.2% | – |
| CC(C)c1cc(C(C)C)c(C(=O)Nc2nnc(NC3CCN(Cc4ccccc4)CC3)s2)c(C(C)C)c1 [compound 265, N-{5-[(1-benzyl-4-piperidinyl)amino]-1,3,4-thiadiazol-2-yl}-2,4,6-triisopropylbenzamide] | 39.1% | – |
| CC(C)c1cc(C(C)C)c(C(=O)Nc2nnc(NCc3ccncc3)s2)c(C(C)C)c1 [compound 266, 2,4,6-triisopropyl-N-{5-[(4-pyridinylmethyl)amino]-1,3,4-thiadiazol-2-yl}benzamide] | 38.8% | – |
| NS(=O)(=O)c1ccc(CCNc2nnc(NC(=O)c3cc4ccccc4s3)s2)cc1 [compound 267, N-(5-{[4-(aminosulfonyl)phenethyl]amino}-1,3,4-thiadiazol-2-yl)-1-benzothiophene-2-carboxamide] | 38.7% | – |
| O=C(/C=C/c1ccccc1Cl)Nc1nnc(NCCc2c[nH]c3ccccc23)s1 [compound 268, (E)-3-(2-chlorophenyl)-N-(5-{[2-(1H-indol-3-yl)ethyl]amino}-1,3,4-thiadiazol-2-yl)-2-propenamide] | 38.7% | – |
| O=C(Nc1nnc(NCCc2c[nH]c3ccccc23)s1)c1cc2ccccc2s1 [compound 269, N-(5-{[2-(1H-indol-3-yl)ethyl]amino}-1,3,4-thiadiazol-2-yl)-1-benzothiophene-2-carboxamide] | 38.5% | – |
| CCOc1ccc2ccccc2c1C(=O)Nc1nnc(NCCc2ccccc2)s1 [compound 270, 2-ethoxy-N-[5-(phenethylamino)-1,3,4-thiadiazol-2-yl]-1-naphthamide] | 38.4% | – |
